Results published in patent US12364671B1, “Methods of administering vitamin A and lactic acid to gilts” (CHINA AGRICULTURAL UNIVERSITY, priority 2024, dated 2025).

Tests used:
[1] = system: cows with reproductive disorders; details: vitamin A 50000 IU per day, alone or with carotene 200 mg per day; cited from earlier work
gilts = assay: Extra vitamin A fed to gilts prior to estrus initiation; format: in vivo; details: extra vitamin A in addition to the diet, no lactic acid
Description: Therefore, the inventors speculated that the lactic acid may be beneficial to the puberty onset and estrus of the gilts.

sheep = details: 50000 IU per day, continuously fed by 50 days; cited from earlier work

Substance: vitamin A
- conception rate [1]: significantly increased
- estrogen level [1]: significantly increased
- estrus ate [1]: not significantly affected
- follicle size [1]: not significantly affected
- delayed estrus initiation or estrus disorder (gilts): improve the delayed estrus initiation or estrus disorder in gilts to some extent
- estrus rate (sheep): no significantly affected
- lambing rate (sheep): significantly increased
